Data from patent US7981892B2, “Disubstituted phthalazine hedgehog pathway antagonists” (Eli Lilly and Company, priority 2008, dated 2011).
Structures can show the parent of a compound that is named as a salt.

System: Gli1 transcript in Daoy cells stimulated with Shh conditioned media
Experiment: Functional assay for measuring the inhibition of Gli1 in Daoy cells (bDNA assay of Gli1 transcript after Shh-conditioned media stimulation)
Assay type: cell-based
Settings: Homo sapiens; Daoy cells treated with Shh-CM, 24 hours incubation with compound, Gli1 transcript by bDNA luminescence
Method: Biological activity is determined using a functional assay in Daoy neuronal cancer cells and measures levels of Gli1 ribonucleic, acid via a bDNA. (branched deoxyribonucleic acid) assay system (Panomies, Inc., Fremont, Calif.), Gli was originally discovered in a Glioblastoma cell line and encodes a zinc finger protein that is activated by Shh signaling. The maximum response is obtained by inducing Gli1 transcription in the Daoy cells with conditioned medium (HEK-293 cells stably expressing recombinant Shb) for 24 hours and. then measuring the amount of stimulated Gli1 transcript. […]
The bDNA assay system utilizes the technology of branched-chain DNA to allow amplification of a target ribonucleic acid (transcript). […] The addition of a chemilumigenic substrate during the amplification step allows for detection using luminescence, […]
Daoy cells are grown to conflunency in tissue culture T225-flasks in Daoy growth media containing Minimum Essential Medium (MEM) plus 10% Fetal Bovine Serum (FBS) with […] non-essential amino acids and 1 mM sodium pyruvate. The cells are removed from the T225-flasks using trypsin ethylenediaminetetraacetic acid (EDTA), centrifuged, resuspended in media, and then counted. […]

An IC50 of roughly 2.37 nM was found for `CN(C(=O)c1c(F)cccc1C(F)(F)F)C1CCN(c2nnc(-c3ccccc3)c3ccccc23)CC1` [Example 36, 2-Fluoro-N-methyl-N-(1-(4-phenylphthalazin-1-yl)piperidin-4-yl)-6-(trifluoromethyl)benzamide hydrochloride] in this work.
